Assay results: ChEMBL document CHEMBL4665871, “Small-molecule active pharmaceutical ingredients of approved cancer therapeutics inhibit human aspartate/asparagine-β-hydroxylase” (Bioorg Med Chem, 2020); call rule not given here

Columns and labels:
[1] = biological target: T1, Aspartyl/asparaginyl beta-hydroxylase (Homo sapiens, UniProt Q12797); experiment: Inhibition of N-His6-tagged human AspH (315-755) expressed in Escherichia coli BL21 (DE3) using high 10 uM hFX-CP as substrate mixture with 10 uM 2OG, 100 uM L-ascorbic acid and 2 uM FAS incubated for 35 mins by MS analysis
T1 sequence (Q12797 whole entry): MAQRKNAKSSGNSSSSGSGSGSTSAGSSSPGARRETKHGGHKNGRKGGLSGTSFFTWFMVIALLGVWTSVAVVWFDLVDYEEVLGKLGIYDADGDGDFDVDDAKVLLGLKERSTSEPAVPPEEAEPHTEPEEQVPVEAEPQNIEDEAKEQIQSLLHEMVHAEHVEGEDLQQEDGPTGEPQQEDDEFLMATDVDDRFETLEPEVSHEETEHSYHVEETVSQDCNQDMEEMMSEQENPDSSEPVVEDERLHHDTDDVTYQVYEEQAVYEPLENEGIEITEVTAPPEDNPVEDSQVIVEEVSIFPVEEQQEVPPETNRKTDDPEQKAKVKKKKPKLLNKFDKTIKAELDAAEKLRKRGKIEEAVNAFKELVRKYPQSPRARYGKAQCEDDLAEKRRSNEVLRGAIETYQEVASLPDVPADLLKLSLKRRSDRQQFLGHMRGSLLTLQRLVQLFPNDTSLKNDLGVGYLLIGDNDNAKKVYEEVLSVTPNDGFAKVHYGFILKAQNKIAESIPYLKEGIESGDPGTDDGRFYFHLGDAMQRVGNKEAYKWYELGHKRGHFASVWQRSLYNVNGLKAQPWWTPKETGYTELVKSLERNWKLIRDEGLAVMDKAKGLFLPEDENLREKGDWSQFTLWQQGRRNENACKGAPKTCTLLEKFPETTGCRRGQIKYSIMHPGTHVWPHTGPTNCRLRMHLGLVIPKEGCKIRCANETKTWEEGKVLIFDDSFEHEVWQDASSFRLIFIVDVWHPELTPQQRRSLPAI

[2] = biological target: T1, Aspartyl/asparaginyl beta-hydroxylase; experiment: Inhibition of N-His6-tagged human AspH (315-755) expressed in Escherichia coli BL21 (DE3) using 1 uM hFX-CP as substrate mixture with 3 uM 2OG, 100 uM L-ascorbic acid and high 20 uM FAS incubated for 35 mins by MS analysis
[3] = biological target: T1, Aspartyl/asparaginyl beta-hydroxylase; experiment: Inhibition of N-His6-tagged human AspH (315-755) expressed in Escherichia coli BL21 (DE3) using 1 uM hFX-CP as substrate mixture with high 200 uM 2OG, 100 uM L-ascorbic acid and 2 uM FAS incubated for 35 mins by MS analysis

- IC50 [1]: 3.39 µM
- IC50 [2]: Not Active
- IC50 [3]: 12.2 µM
Compound: CO[C@H](C(=O)[C@@H](O)[C@@H](C)O)[C@@H]1Cc2cc3cc(O[C@H]4C[C@@H](O[C@H]5C[C@@H](O)[C@H](O)[C@@H](C)O5)[C@H](O)[C@@H](C)O4)c(C)c(O)c3c(O)c2C(=O)[C@H]1O[C@H]1C[C@@H](O[C@H]2C[C@@H](O[C@H]3C[C@](C)(O)[C@H](O)[C@@H](C)O3)[C@@H](O)[C@@H](C)O2)[C@H](O)[C@@H](C)O1
